{
  "source": "patent US20160220602A1",
  "about": "“USE OF CHINESE MEDICINE PREPARATION IN PREPARING DRUG FOR PREVENTING AND/OR TREATING CROHN'S DISEASE” (TASLY PHARMACEUTICAL GROUP CO., LTD., priority 2013, published 2016)",
  "type_in_all_cases": "in vivo, SD rats",
  "key": {"[1]": {"test_system": "TNBS-induced SD rat Crohn's disease model", "experiment": "Colon gross damage and histopathological score, TNBS model rats", "conditions": "100 mg/kg", "procedure": "Grouping: experiment was carried out by using two ways of intracolonic and intragastric administrations. […] There were 10 rats each group. Method for establishing rat model: referring to Morris method, TNBS was used to induce the SD rat Crohn's disease model (abbreviated as “TNBS model”). 24 hours before modeling, the SD rats were fasted but water was given. […] The rats of blank control group were normally fed with free access to water and the same volume of normal saline was given in the same administration routes by referring to the dosage regime of aforementioned treatment groups. The rats of model group were administrated with the same volume of normal saline in the same administration routes. […] (3) Pathological indices: the colon of rats was taken out. The gross colon tissue damage was scored, subsequently examined and scored histopathologically by conventional HE staining. […] [table]"}, "[2]": {"test_system": "IL-4", "experiment": "Serum IL-4 by ELISA, OXZ model rats", "conditions": "100 mg/kg once per day, 11 days", "procedure": "(§1) Grouping: the experiment was carried out by using two ways of intracolonic and intragastric administration. […] There were 10 rats each group. Method for establishing rat model: referring to the Heller method, OXZ was used to induce the SD rat Crohn's disease model (abbreviated as “OXZ model”). Neck and back skin of rats were shaved (2 cm×2 cm). Ethanol was used to prepare 5% (w/v) OXZ solution, and 0.3 ml resultant OXZ solution was dripped on the skin of rats. After the solution was air-dried naturally, skin allergy occurred in rats. The sensitized rats were adaptively raised for 5 days, […] anesthetized by intraperitoneal injection of pentobarbital sodium. […] After completion, the rats were inverted by lifting tails for 60s to make the solution totally absorbed. […] If the rats manifested dark hair color, body weight loss, poor appetite, lassitude, watery stool or diarrhea, the model establishment was success. Administration method: after successful model establishment by OXZ, the drug was given to rats. The TCM preparation k saline solutions at corresponding dose were administered to the groups of preparation k of all doses and the […] saline solution, a positive drug, administrated to the positive control group. […] Serum IFN-γ, IL-4, and Gln in intestinal mucosa were determined by ELISA in rats."}, "[3]": {"test_system": "IFN-γ", "experiment": "Serum IFN-γ by ELISA, OXZ model rats", "conditions": "100 mg/kg once per day, 11 days", "procedure": "as §1"}, "[4]": {"test_system": "IL-1", "experiment": "Serum IL-1 by ELISA, TNBS model rats", "conditions": "100 mg/kg once per day, 21 days", "procedure": "(§2) Grouping: experiment was carried out by using two ways of intracolonic and intragastric administrations. […] There were 10 rats each group. Method for establishing rat model: referring to Morris method, TNBS was used to induce the SD rat Crohn's disease model (abbreviated as “TNBS model”). 24 hours before modeling, the SD rats were fasted but water was given. […] The rats of blank control group were normally fed with free access to water and the same volume of normal saline was given in the same administration routes by referring to the dosage regime of aforementioned treatment groups. The rats of model group were administrated with the same volume of normal saline in the same administration routes. […] (2) Serum indices: after final administration, the testing rats were fasted but given water. 24 hours later, blood was gained from abdominal aorta. Serum IFN-γ, IL-1, IL-4, IL-10 and Gln in intestinal mucosa were determined by enzyme-linked immunosorbent assay (ELISA) in rats."}, "[5]": {"test_system": "OXZ-induced SD rat Crohn's disease model", "experiment": "DAI score in oxazolone-caused Crohn's disease rat model", "parameters": "key: DAI = (weight loss % + stool character + hematochezia scores)/3", "conditions": "100 mg/kg", "procedure": "Grouping: the experiment was carried out by using two ways of intracolonic and intragastric administration. […] There were 10 rats each group. Method for establishing rat model: referring to the Heller method, OXZ was used to induce the SD rat Crohn's disease model (abbreviated as “OXZ model”). Neck and back skin of rats were shaved (2 cm×2 cm). Ethanol was used to prepare 5% (w/v) OXZ solution, and 0.3 ml resultant OXZ solution was dripped on the skin of rats. […] The sensitized rats were adaptively raised for 5 days, […] anesthetized by intraperitoneal injection of pentobarbital sodium. […] After completion, the rats were inverted by lifting tails for 60s to make the solution totally absorbed. […] If the rats manifested dark hair color, body weight loss, poor appetite, lassitude, watery stool or diarrhea, the model establishment was success. Administration method: after successful model establishment by OXZ, the drug was given to rats. The TCM preparation k saline solutions at corresponding dose were administered to the groups of preparation k of all doses and the […] saline solution, a positive drug, administrated to the positive control group. The rats of blank control group were normally fed, given with water and the same volume of normal saline was given in the same administration routes by referring to the dosage regime of aforesaid treatment groups. The rats of model group were administrated with the same volume of normal saline in the same administration routes. The dose of each group was as follows: […] group at 100 mg/kg rat weight, the TCM preparation k high-dose group at 2.023 g raw medicine/kg rat weight, the middle-dose group at 1.012 g raw medicine/kg rat weight and the low-dose group at 0.506 g raw medicine/kg rat weight. […] (1) General Indices: weight change and stool (e.g. stool occult blood, bloody stool and diarrhea) were observed every day to calculate DAI score. DAI score=(weight loss percentage+defecate character fraction+hematochezia fraction)/3 [table]"}, "[6]": {"test_system": "Gln in intestinal mucosa", "experiment": "Gln in intestinal mucosa by ELISA, TNBS model rats", "conditions": "100 mg/kg once per day, 21 days", "procedure": "as §2"}, "[7]": {"test_system": "IFN-γ", "experiment": "Serum IFN-γ by ELISA, TNBS model rats", "conditions": "100 mg/kg once per day, 21 days", "procedure": "as §2"}},
  "data": [
    {"smiles": "Nc1ccc(O)c(C(=O)O)c1", "note": "[mesalamine, Mesalamine]", "values": [
      {"measurement": "Gross damage score (Mean ± SD)", "setting": "[1]; intracolonic", "value": "0.500 ± 0.707"},
      {"measurement": "Histopathological score (Mean ± SD)", "setting": "[1]; intracolonic", "value": "1.00 ± 1.10"},
      {"measurement": "Gross damage score (Mean ± SD)", "setting": "[1]; intragastric", "value": "0.556 ± 0.527"},
      {"measurement": "Histopathological score (Mean ± SD)", "setting": "[1]; intragastric", "value": "0.83 ± 0.41"},
      {"measurement": "IL-4 serum content (Mean ± SD)", "setting": "[2]; intracolonic", "value": "86.63 ± 11.20", "unit": "pg/mL"},
      {"measurement": "IL-4 serum content (Mean ± SD)", "setting": "[2]; intragastric", "value": "86.86 ± 7.84", "unit": "pg/mL"},
      {"measurement": "IFN-γ serum content (Mean ± SD)", "setting": "[3]; intracolonic", "value": "85.85 ± 10.66", "unit": "pg/mL"},
      {"measurement": "IFN-γ serum content (Mean ± SD)", "setting": "[3]; intragastric", "value": "81.88 ± 18.00", "unit": "pg/mL"},
      {"measurement": "IL-1 serum content (Mean ± SD)", "setting": "[4]; intracolonic", "value": "167.66 ± 26.95", "unit": "pg/mL"},
      {"measurement": "IL-1 serum content (Mean ± SD)", "setting": "[4]; intragastric", "value": "154.59 ± 39.98", "unit": "pg/mL"},
      {"measurement": "DAI score (Mean ± SD)", "setting": "[5]; Table 14: OXZ model rats, intracolonic, 1st day", "value": "0.267 ± 0.263"},
      {"measurement": "DAI score (Mean ± SD)", "setting": "[5]; Table 14: OXZ model rats, intracolonic, 2nd day", "value": "0.400 ± 0.378"},
      {"measurement": "DAI score (Mean ± SD)", "setting": "[5]; Table 14: OXZ model rats, intracolonic, 3rd day", "value": "0.300 ± 0.331"},
      {"measurement": "DAI score (Mean ± SD)", "setting": "[5]; Table 14: OXZ model rats, intracolonic, 4th day", "value": "0.333 ± 0.385"},
      {"measurement": "DAI score (Mean ± SD)", "setting": "[5]; Table 14: OXZ model rats, intracolonic, 5th day", "value": "0.800 ± 0.422"},
      {"measurement": "DAI score (Mean ± SD)", "setting": "[5]; Table 14: OXZ model rats, intracolonic, 7th day", "value": "1.700 ± 0.637"},
      {"measurement": "DAI score (Mean ± SD)", "setting": "[5]; Table 14: OXZ model rats, intracolonic, 8th day", "value": "1.500 ± 0.593"},
      {"measurement": "DAI score (Mean ± SD)", "setting": "[5]; Table 14: OXZ model rats, intracolonic, 9th day", "value": "0.733 ± 0.439"},
      {"measurement": "DAI score (Mean ± SD)", "setting": "[5]; Table 15, as titled: intracolonic, TNBS model rats, 1st day", "value": "0.600 ± 0.141"},
      {"measurement": "DAI score (Mean ± SD)", "setting": "[5]; Table 15, as titled: intracolonic, TNBS model rats, 4th day", "value": "0.267 ± 0.211"},
      {"measurement": "DAI score (Mean ± SD)", "setting": "[5]; Table 15, as titled: intracolonic, TNBS model rats, 5th day", "value": "1.000 ± 0.222"},
      {"measurement": "DAI score (Mean ± SD)", "setting": "[5]; Table 15, as titled: intracolonic, TNBS model rats, 8th day", "value": "1.967 ± 0.576"},
      {"measurement": "DAI score (Mean ± SD)", "setting": "[5]; Table 15, as titled: intracolonic, TNBS model rats, 9th day", "value": "1.633 ± 0.429"},
      {"measurement": "DAI score (Mean ± SD)", "setting": "[5]; Table 15, as titled: intracolonic, TNBS model rats, 10th day", "value": "1.267 ± 0.625"},
      {"measurement": "DAI score (Mean ± SD)", "setting": "[5]; Table 15, as titled: intracolonic, TNBS model rats, 11th day", "value": "1.067 ± 0.798"},
      {"measurement": "Gln in intestinal mucosa (Mean ± SD)", "setting": "[6]; intracolonic", "value": "146.36 ± 28.11", "unit": "µmol/L"},
      {"measurement": "Gln in intestinal mucosa (Mean ± SD)", "setting": "[6]; intragastric", "value": "158.74 ± 41.35", "unit": "µmol/L"},
      {"measurement": "IFN-γ serum content (Mean ± SD)", "setting": "[7]; intracolonic", "value": "84.51 ± 19.65", "unit": "pg/mL"},
      {"measurement": "IFN-γ serum content (Mean ± SD)", "setting": "[7]; intragastric", "value": "93.88 ± 23.67", "unit": "pg/mL"}
    ]}
  ]
}
